Reference: patent publication US20050112713A1, “Methods of using Fab I and compounds modulating Fab I activity” (Affinium Pharmaceuticals, Inc., priority 1996, published 2005)
Like-named read-outs stand apart in the source and are kept apart here.

Key:
[1] = target: T1, S. aureus Fab I (Staphylococcus aureus, UniProt Q6GI75); assay: Inhibition of non his tagged (native) Fab I by saturated fatty acyl CoA's, NADH consumption at 340 nm; assay type: biochemical; conditions: read-out: Mean IC50 (uM) (n = 2), 1 mM crotonoyl CoA and 1 mM NADH, 100 mM NaADA, pH 6.5
T1 construct: made in house; host or cells: E. coli
T1 sequence (Q6GI75 1-256): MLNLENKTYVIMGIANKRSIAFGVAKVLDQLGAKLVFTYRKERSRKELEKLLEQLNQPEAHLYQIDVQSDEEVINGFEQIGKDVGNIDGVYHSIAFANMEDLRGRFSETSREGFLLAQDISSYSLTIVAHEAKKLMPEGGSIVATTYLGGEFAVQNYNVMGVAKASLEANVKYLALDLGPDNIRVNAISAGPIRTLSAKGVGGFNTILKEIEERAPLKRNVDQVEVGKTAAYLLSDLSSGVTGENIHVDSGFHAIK
Procedure: (§1) Crotonoyl CoA was used as the substrate for Fab I and all activity measurements were based on a decrease in absorbance at 340 nm due to the utilization of NADH (FIG. 1). All assays were performed with 100 mM NaADA, pH 6.5 buffer. Acyl-CoA inhibition data was performed in the presence of 1 mM crotonoyl CoA and 1 mM NADH.

[2] = target: T1, S. aureus Fab I; assay: Kinetic characterization of native S. aureus Fab I (substrates, mode of inhibition); assay type: biochemical
Procedure: as §1
(§2) However, studies performed at pH 6.0-7.0 with the native enzyme illustrated a sequential mechanistic pattern and kinetic parameters resulting from these studies indicated no overt change in either magnitude or kinetic mechanism. Thus the His10 tagged Fab I behaved distinctly from native Fab I enzyme.

[3] = target: T2, E. coli Fab I (Escherichia coli, UniProt P0AEK4); conditions: cited from earlier work
T2 sequence (P0AEK4 whole entry): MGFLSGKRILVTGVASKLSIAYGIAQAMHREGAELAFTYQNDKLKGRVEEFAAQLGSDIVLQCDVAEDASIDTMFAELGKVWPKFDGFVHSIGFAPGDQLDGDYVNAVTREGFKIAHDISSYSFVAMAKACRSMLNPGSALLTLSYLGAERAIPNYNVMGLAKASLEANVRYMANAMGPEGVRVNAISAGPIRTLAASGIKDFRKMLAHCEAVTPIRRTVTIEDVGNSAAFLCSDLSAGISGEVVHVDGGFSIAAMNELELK

[4] = target: T2, E. coli Fab I; assay: Kinetic constants of E. coli Fab I for its substrates; assay type: biochemical
Excerpt: A diazaborine derivative may be used as a positive control, this should be readily available via a 2 step synthesis with publicly available starting materials using methods known in the art. Test compounds may be added to this assay to determine whether they agonize or antagonize enzymatic activity.

[5] = substrate: C/C=C/C(=O)SCCNC(=O)CCNC(=O)[C@H](O)C(C)(C)COP(=O)(O)OP(=O)(O)OC[C@H]1O[C@@H](n2cnc3c(N)ncnc32)[C@H](O)[C@@H]1OP(=O)(O)O; assay: Kinetic characterization of native S. aureus Fab I (substrates, mode of inhibition); assay type: biochemical, Staphylococcus aureus; conditions: other: S. aureus Fab I
Procedure: as §1, §2

With `CC(=O)SCCNC(=O)CCNC(=O)[C@H](O)C(C)(C)COP(=O)(O)OP(=O)(O)OC[C@H]1O[C@@H](n2cnc3c(N)ncnc32)[C@H](O)[C@@H]1OP(=O)(O)O` [Acetyl] as the molecule, how does the IC50 [1] read?
The IC50 was > 1000 µM.

With `C/C=C/C(=O)SCCNC(=O)CCNC(=O)[C@H](O)C(C)(C)COP(=O)(O)OP(=O)(O)OC[C@H]1O[C@@H](n2cnc3c(N)ncnc32)[C@H](O)[C@@H]1OP(=O)(O)O` [CCA, crotonoyl CoA] as the molecule, how does the KCCA ([2]; native S. aureus Fab I) read?
Its KCCA is 2.5 mM.

What about the KCCA ([3]; E. coli Fab I, Bergler et al 1994) of the same molecule?
The KCCA was 2.7 mM.

What about the Km ([3]; substrate of FAB I activity assay (Bergler et al 1994)) of the same molecule?
Its Km is 2700 µM.

For `CCCCCCCCCCCCCC(=O)SCCNC(=O)CCNC(=O)[C@H](O)C(C)(C)COP(=O)(O)OP(=O)(O)OC[C@H]1O[C@@H](n2cnc3c(N)ncnc32)[C@H](O)[C@@H]1OP(=O)(O)O` [Myristoyl], which IC50 [1] is on record?
Its IC50 is 23.1 µM.

For `NC(=O)C1=CN([C@@H]2O[C@H](COP(=O)(O)OP(=O)(O)OC[C@H]3O[C@@H](n4cnc5c(N)ncnc54)[C@H](O)[C@@H]3O)[C@@H](O)[C@H]2O)C=CC1` [NADH], which “Kmapp for NADH relative to NADPH” value ([2]; S. aureus Fab I) is on record?
The value was “approximately 30 fold”.

And the Km ([2]; S. aureus Fab I, read-out: Km for NADH)?
Its Km is ~410 µM.

What about the KNADH ([2]; native S. aureus Fab I) of the same molecule?
The KNADH was 0.7 mM.

What about the KiNADH ([2]; native S. aureus Fab I) of the same molecule?
The KiNADH was 0.2 mM.

And the KNADH [4]?
The KNADH was 0.01 mM.

What about the Km ([4]; read-out: Km for NADH) of the same molecule?
Its Km is 13 µM.

Which IC50 [1] does the source give for `CCCC(=O)SCCNC(=O)CCNC(=O)[C@H](O)C(C)(C)COP(=O)(O)OP(=O)(O)OC[C@H]1O[C@@H](n2cnc3c(N)ncnc32)[C@H](O)[C@@H]1OP(=O)(O)O` [n-Butyryl] here?
The IC50 was > 1000 µM.

Which IC50 [1] does the source give for `CCCCCCCCCC(=O)SCCNC(=O)CCNC(=O)C(O)C(C)(C)COP(=O)(O)OP(=O)(O)OC[C@H]1O[C@@H](n2cnc3c(N)ncnc32)[C@H](O)[C@@H]1OP(=O)(O)O` (stereo partly drawn) [n-Decanoyl] here?
The IC50 was 226 µM.

For `CCCCCC(=O)SCCNC(=O)CCNC(=O)C(O)C(C)(C)COP(=O)(O)OP(=O)(O)OC[C@H]1O[C@@H](n2cnc3c(N)ncnc32)[C@H](O)[C@@H]1OP(=O)(O)O` (stereo partly drawn) [n-Hexanoyl], which IC50 [1] is on record?
The IC50 was 576 µM.

With `CCCCCCCC(=O)SCCNC(=O)CCNC(=O)C(O)C(C)(C)COP(=O)(O)OP(=O)(O)OC[C@H]1O[C@@H](n2cnc3c(N)ncnc32)[C@H](O)[C@@H]1OP(=O)(O)O` (stereo partly drawn) [n-Octanoyl] as the molecule, how does the IC50 [1] read?
The IC50 was 248 µM.

Which “Mode of inhibition versus NADH” value ([2]; S. aureus Fab I) does the source give for “Apo-ACP: apo acyl carrier protein, inhibitor of Fab I” here?
The value was “uncompetitive”.

What about the “Mode of inhibition versus crotonoyl CoA” value ([2]; S. aureus Fab I) of the same molecule?
The value was “competitive”.

B1: S. aureus Fab I (Staphylococcus aureus subsp. aureus MRSA252) (protein)
chain: MLNLENKTYVIMGIANKRSIAFGVAKVLDQLGAKLVFTYRKERSRKELEKLLEQLNQPEAHLYQIDVQSDEEVINGFEQIGKDVGNIDGVYHSIAFANMEDLRGRFSETSREGFLLAQDISSYSLTIVAHEAKKLMPEGGSIVATTYLGGEFAVQNYNVMGVAKASLEANVKYLALDLGPDNIRVNAISAGPIRTLSAKGVGGFNTILKEIEERAPLKRNVDQVEVGKTAAYLLSDLSSGVTGENIHVDSGFHAIK
notes: made in house; host or cells: E. coli
With B1 as the molecule, how does the Km [5] read?
Its Km is 2500 µM.
